The values that follow come from PMC9172056 (Journal of medicinal chemistry, 2022).

Where two headings read alike, the source gives them in different places.

As usually defined, the EC50 is the concentration giving half of the maximal effect. The IC50 is the concentration that gives 50% inhibition. Low readings indicate higher potency, high ones lower potency.

For data set [1], the system named is entry of SARS-CoV-2 (pseudotyped lentivirus with S). Kind of data set: organism not typed. Format: cell-based. The conditions noted are these: read-out: EC50 inhibition of SARS-CoV-2 entry.
The next data set in a line: in vitro. The conditions noted are these: cat.
A further data set deals with SARS-CoV-2 3CL^pro (Severe acute respiratory syndrome coronavirus 2, UniProt P0DTD1). Kind of data set: biochemical. Format: biochemical.
A further data set concerns the target MERS-CoV 3CL^pro (Middle East respiratory syndrome-related coronavirus, UniProt K9N7C7). Description: biochemical.
Data set [2] concerns SARS-CoV-2 replicon. Conditions: read-out: EC50 SARS-CoV-2 replicon assay, previously reported; cited from earlier work. A general note: A replicon is a self-replicating genome or part of one, used to study replication in cells.
Another data set has as its system CRFK cells. The conditions noted are these: cat.
Data set [3] concerns SARS-CoV-2 replicon. The format is cell-based. Conditions: read-out: EC50 SARS-CoV-2 replicon assay.

MERS-CoV 3CL^pro, sequence (K9N7C7 3248-3553 limits assumed): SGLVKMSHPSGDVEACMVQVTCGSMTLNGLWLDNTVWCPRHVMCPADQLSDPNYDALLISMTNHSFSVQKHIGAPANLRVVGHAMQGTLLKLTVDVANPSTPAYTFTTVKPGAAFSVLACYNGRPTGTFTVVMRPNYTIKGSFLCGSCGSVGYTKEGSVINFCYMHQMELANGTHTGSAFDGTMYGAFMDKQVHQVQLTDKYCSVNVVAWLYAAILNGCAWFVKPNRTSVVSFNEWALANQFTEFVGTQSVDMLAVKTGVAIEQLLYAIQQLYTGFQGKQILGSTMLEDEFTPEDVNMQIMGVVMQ

In the case of `CC(C)C[C@H](NC(=O)OCC1CN(C(=O)OC(C)(C)C)C1)C(=O)N[C@H](C=O)C[C@H]1CCNC1=O` [Compound 14b, tert-Butyl 3-(((((S)-4-methyl-1-oxo-1-(((S)-1-oxo-3-((R)-2-oxopyrrolidin-3-yl)propan-2-yl)amino)pentan-2-yl)carbamoyl)oxy)methyl)azetidine-1-carboxylate], the concentration for a half-maximal effect (EC50) in data set [1] is 2000 to 10000 nM. In “in vitro”, this molecule yielded a CC50 above 100000 nM. Further, at SARS-CoV-2 3CL^pro, the “fold better IC50 than the 12b/12c pair” value was above 6 fold and the “fold more potent than 17b” value was 12 fold.
Regarding `CC(C)C[C@H](NC(=O)OC1CC2(CCN(C(=O)OC(C)(C)C)CC2)C1)C(=O)N[C@@H](C[C@H]1CCNC1=O)C(O)S(=O)(=O)O` (stereo partly drawn) [Compound 7c, Sodium (2S)-2-((S)-2-((((7-(tert-butoxycarbonyl)-7-azaspiro[3.5]nonan-2-yl)oxy)carbonyl)amino)-4-methylpentanamido)-1-hydroxy-3-((R)-2-oxopyrrolidin-3-yl)propane-1-sulfonate], the EC50 in data set [1] lay in the range of 2000 to 10000 nM. In “in vitro”, this molecule yielded a CC50 above 100000 nM. Also, the IC50 stood at 950 ± 210 nM against MERS-CoV 3CL^pro and 290 ± 20 nM at SARS-CoV-2 3CL^pro.
Regarding `CC(C)C[C@H](NC(=O)OC1CC2(CCN(C(=O)OC(C)(C)C)C2)C1)C(=O)N[C@@H](C[C@H]1CCNC1=O)C(O)S(=O)(=O)O` (stereo partly drawn) [Compound 5c, Sodium (2S)-2-((S)-2-((((6-(tert-butoxycarbonyl)-6-azaspiro[3.4]octan-2-yl)oxy)carbonyl)amino)-4-methylpentanamido)-1-hydroxy-3-((R)-2-oxopyrrolidin-3-yl)propane-1-sulfonate], the CC50 in “in vitro” is above 100000 nM. Moreover, the concentration for half-maximal inhibition (IC50) on MERS-CoV 3CL^pro and on SARS-CoV-2 3CL^pro was 750 ± 70 nM throughout.
The molecule `CC(C)C[C@H](NC(=O)OC1CCC2(C1)CN(C(=O)OC(C)(C)C)C2)C(=O)N[C@@H](C[C@H]1CCNC1=O)C(O)S(=O)(=O)O` (stereo partly drawn) [Compound 6c, Sodium (2S)-2-((2S)-2-((((2-(tert-butoxycarbonyl)-2-azaspiro[3.4]octan-6-yl)oxy)carbonyl)amino)-4-methylpentanamido)-1-hydroxy-3-((R)-2-oxopyrrolidin-3-yl)propane-1-sulfonate] displayed a CC50 in “in vitro” above 100000 nM. Besides, the IC50 worked out at 1300 ± 140 nM against MERS-CoV 3CL^pro and 1200 ± 140 nM against SARS-CoV-2 3CL^pro.
For `CC(C)C[C@H](NC(=O)OC1CC2(C1)CN(C(=O)OC(C)(C)C)C2)C(=O)N[C@@H](C[C@H]1CCNC1=O)C(O)S(=O)(=O)O` (stereo partly drawn) [Compound 1c, Sodium (2S)-2-((S)-2-((((2-(tert-butoxycarbonyl)-2-azaspiro[3.3]heptan-6-yl)oxy)carbonyl)amino)-4-methylpentanamido)-1-hydroxy-3-((R)-2-oxopyrrolidin-3-yl)propane-1-sulfonate] the same measures were above 100000 nM, 280 ± 110 nM and 850 ± 70 nM.
In “in vitro”, `CC(C)C[C@H](NC(=O)OCC1CN(C(=O)Cc2ccccc2)C1)C(=O)N[C@@H](C[C@H]1CCNC1=O)C(O)S(=O)(=O)O` (stereo partly drawn) [Compound 15c, Sodium (2S)-1-hydroxy-2-((S)-4-methyl-2-((((1-(2-phenylacetyl)azetidin-3-yl)methoxy)carbonyl)amino)pentanamido)-3-((R)-2-oxopyrrolidin-3-yl)propane-1-sulfonate] had a CC50 above 100000 nM. Moreover, the IC50 was found to be 180 ± 10 nM against MERS-CoV 3CL^pro and 760 ± 80 nM on SARS-CoV-2 3CL^pro.
As to `CC(C)C[C@H](NC(=O)OC1CC2(CCN(C(=O)OC(C)(C)C)CC2)C1)C(=O)N[C@H](C=O)C[C@H]1CCNC1=O` [Compound 7b, tert-Butyl 2-((((S)-4-methyl-1-oxo-1-(((S)-1-oxo-3-((R)-2-oxopyrrolidin-3-yl)propan-2-yl)amino)pentan-2-yl)carbamoyl)oxy)-7-azaspiro[3.5]nonane-7-carboxylate], the EC50 in data set [1] was in the range of 2000 to 10000 nM. The same molecule registered a CC50 in the data set “in vitro” above 100000 nM. In addition, the “fold lower IC50 than compound 1b” value at SARS-CoV-2 3CL^pro was above 9 fold.
Molecule `CC(C)C[C@H](NC(=O)OC1CC2(CCN(C(=O)Cc3ccccc3)CC2)C1)C(=O)N[C@@H](C[C@H]1CCNC1=O)C(O)S(=O)(=O)O` (stereo partly drawn) [Compound 9c, Sodium (2S)-1-hydroxy-2-((S)-4-methyl-2-((((7-(2-phenylacetyl)-7-azaspiro[3.5]nonan-2-yl)oxy)carbonyl)amino)pentanamido)-3-((R)-2-oxopyrrolidin-3-yl)propane-1-sulfonate] registered a CC50 in the data set “in vitro” above 100000 nM. Also, the IC50 against MERS-CoV 3CL^pro came out at 610 ± 130 nM; at SARS-CoV-2 3CL^pro it was 290 ± 60 nM.
For `CC(C)C[C@H](NC(=O)OC1CC2(C1)CN(S(C)(=O)=O)C2)C(=O)N[C@@H](C[C@H]1CCNC1=O)C(O)S(=O)(=O)O` (stereo partly drawn) [Compound 4c, Sodium (2S)-1-hydroxy-2-((S)-4-methyl-2-((((2-(methylsulfonyl)-2-azaspiro[3.3]heptan-6-yl)oxy)carbonyl)amino)pentanamido)-3-((R)-2-oxopyrrolidin-3-yl)propane-1-sulfonate] the same measures were above 100000 nM, 160 ± 10 nM and 760 ± 80 nM.
On the same counts, the results for `[2H]C([2H])(OC(=O)N[C@@H](CC(C)C)C(=O)N[C@@H](C[C@H]1CCNC1=O)C(O)S(=O)(=O)[O-])C1CN(C(=O)OC(C)(C)C)C1.[Na+]` (stereo partly drawn) [Compound 18c, Sodium (2S)-2-((S)-2-((((1-(tert-butoxycarbonyl)azetidin-3-yl)methoxy-d2)carbonyl)amino)-4-methylpentanamido)-1-hydroxy-3-((R)-2-oxopyrrolidin-3-yl)propane-1-sulfonate] are above 100000 nM, 370 ± 60 nM and 340 ± 10 nM.
Molecule `CC(C)C[C@H](NC(=O)OCC1CN(C(=O)C2CC3CCC2C3)C1)C(=O)N[C@@H](C[C@H]1CCNC1=O)C(O)S(=O)(=O)O` (stereo partly drawn) [Compound 16c, Sodium (2S)-2-((2S)-2-((((1-(bicyclo[2.2.1]heptane-2-carbonyl)azetidin-3-yl)methoxy)carbonyl)amino)-4-methylpentanamido)-1-hydroxy-3-((R)-2-oxopyrrolidin-3-yl)propane-1-sulfonate] gave a CC50 in “in vitro” above 100000 nM. Also, the IC50 at MERS-CoV 3CL^pro is 170 ± 30 nM; against SARS-CoV-2 3CL^pro, 490 ± 20 nM.
As for GC376, the EC50 in the data set on SARS-CoV-2 replicon [2] was 20 nM; in the data set with SARS-CoV-2 replicon [3], 27 ± 10 nM. In addition, in the data set with CRFK cells, the CC50 was above 100000 nM.
Consider `CC(C)C[C@H](NC(=O)OCC1CN(C(=O)OC(C)(C)C)C1)C(=O)N[C@@H](C[C@H]1CCNC1=O)C(O)S(=O)(=O)[O-].[Na+]` (stereo partly drawn) [Compound 14c, Sodium (2S)-2-((S)-2-((((1-(tert-butoxycarbonyl)azetidin-3-yl)methoxy)carbonyl)amino)-4-methylpentanamido)-1-hydroxy-3-((R)-2-oxopyrrolidin-3-yl)propane-1-sulfonate], for which, in data set [1], the EC50 is 2000 to 10000 nM. Further, the CC50 in the data set “in vitro” is above 100000 nM. In addition, the IC50 on MERS-CoV 3CL^pro was 440 ± 60 nM. For the same molecule, at SARS-CoV-2 3CL^pro, half-maximal inhibition (IC50) required 500 ± 140 nM and the “fold better IC50 than the 12b/12c pair” value is above 6 fold.
For the molecule `CC(C)C[C@H](NC(=O)OC1CC2(C1)CN(C(=O)C(C)C)C2)C(=O)N[C@@H](C[C@H]1CCNC1=O)C(O)S(=O)(=O)O` (stereo partly drawn) [Compound 2c, Sodium (2S)-1-hydroxy-2-((S)-2-((((2-isobutyryl-2-azaspiro[3.3]heptan-6-yl)oxy)carbonyl)amino)-4-methylpentanamido)-3-((R)-2-oxopyrrolidin-3-yl)propane-1-sulfonate], the CC50 in the data set “in vitro” was above 100000 nM. Further, the concentration for half-maximal inhibition (IC50) was 550 ± 70 nM against MERS-CoV 3CL^pro and 650 ± 70 nM at SARS-CoV-2 3CL^pro.
On the same counts, the results for `CC(C)C[C@H](NC(=O)OC1CC2(CCN(C#N)CC2)C1)C(=O)N[C@@H](C[C@H]1CCNC1=O)C(O)S(=O)(=O)O` (stereo partly drawn) [Compound 11c, Sodium (2S)-2-((S)-2-((((7-cyano-7-azaspiro[3.5]nonan-2-yl)oxy)carbonyl)amino)-4-methylpentanamido)-1-hydroxy-3-((R)-2-oxopyrrolidin-3-yl)propane-1-sulfonate] are above 100000 nM, 630 ± 180 nM and 390 ± 30 nM.
